Measured values as given in ChEMBL document CHEMBL1140955, “Synthesis and in vitro biological evaluation of valine-containing prodrugs derived from clinically used HIV-protease inhibitors” (Eur J Med Chem, 2008).

Assays:
[1] = Cytotoxicity against human CEM-SS cells after 5 days by MTT assay; assay type: cell-based
[2] = system: Caco-2; experiment: Permeability from apical to basolateral side of human Caco-2 cells assessed as ratio of prodrug concentration in receiver to prodrug concentration in donor at 9.4 uM in donor chamber after 3 hrs; assay type: ADME, cell-based; details: caco-2, 3 h
[3] = system: Human immunodeficiency virus 1; experiment: Antiviral activity against HIV1 LAI infected in human CEM-SS cells assessed as reverse transcriptase activity after 5 days by MTT assay; assay type: functional, organism-based; details: Human immunodeficiency virus 1, LAI, 120 h
[4] = system: Human immunodeficiency virus 1; experiment: Antiviral activity against HIV1 3B infected in human MT4 cells assessed as reverse transcriptase activity after 5 days by MTT assay; details: Human immunodeficiency virus 1, 3B, MT4, 120 h
[5] = Apparent permeability from apical to basolateral side of human Caco-2 cells at 9.4 uM in donor chamber after 3 hrs; assay type: ADME, cell-based; details: read-out: permeability
[6] = Cytotoxicity against human MT4 cells after 4 days by MTT assay; assay type: cell-based
[7] = system: Caco-2; experiment: Permeability from basolateral to apical side of human Caco-2 cells assessed as ratio of prodrug concentration in receiver to prodrug concentration in donor at 9.4 uM in donor chamber after 3 hrs; assay type: ADME, cell-based; details: caco-2, 3 h
[8] = Apparent permeability from basolateral to apical side of human Caco-2 cells at 9.4 uM in donor chamber after 3 hrs; assay type: ADME, cell-based; details: read-out: permeability
[9] = system: Human immunodeficiency virus 1; experiment: Antiviral activity against HIV1 LAI infected in human CEM-SS cells assessed as ratio of IC50 for prodrug to IC50 for parent compound; assay type: functional
[10] = system: Human immunodeficiency virus 1; experiment: Antiviral activity against HIV1 3B infected in human MT4 cells assessed as ratio of IC50 for prodrug to IC50 for parent compound
[11] = system: Caco-2; experiment: Permeability from basolateral to apical side of human Caco-2 cells assessed as ratio of prodrug concentration in receiver to prodrug concentration in donor at 330 uM in donor chamber after 3 hrs; assay type: ADME, cell-based; details: caco-2, 3 h
[12] = Apparent permeability from basolateral to apical side of human Caco-2 cells at 330 uM in donor chamber after 3 hrs; assay type: ADME, cell-based; details: read-out: permeability
[13] = Apparent permeability from apical to basolateral side of human Caco-2 cells at 330 uM in donor chamber after 3 hrs; assay type: ADME, cell-based; details: read-out: permeability
[14] = Chemical stability assessed as hydrolysis half life at pH 7.3; assay type: physicochemical; details: buffer
[15] = system: Caco-2; experiment: Permeability from apical to basolateral side of human Caco-2 cells assessed as ratio of prodrug concentration in receiver to prodrug concentration in donor at 330 uM in donor chamber after 3 hrs; assay type: ADME, cell-based; details: caco-2, 3 h
[16] = system: Caco-2; experiment: Permeability from basolateral to apical side of human Caco-2 cells assessed as ratio of prodrug concentration in receiver to prodrug concentration in donor at 150 uM in donor chamber after 3 hrs; assay type: ADME, cell-based; details: caco-2, 3 h
[17] = Apparent permeability from basolateral to apical side of human Caco-2 cells at 150 uM in donor chamber after 3 hrs; assay type: ADME, cell-based; details: read-out: permeability
[18] = system: Caco-2; experiment: Permeability from basolateral to apical side of human Caco-2 cells assessed as ratio of prodrug concentration in receiver to prodrug concentration in donor at 21 uM in donor chamber after 3 hrs; assay type: ADME, cell-based; details: caco-2, 3 h
[19] = Apparent permeability from basolateral to apical side of human Caco-2 cells at 21 uM in donor chamber after 3 hrs; assay type: ADME, cell-based; details: read-out: permeability
[20] = Apparent permeability from apical to basolateral side of human Caco-2 cells at 21 uM in donor chamber after 3 hrs; assay type: ADME, cell-based; details: read-out: permeability
[21] = system: Caco-2; experiment: Permeability from apical to basolateral side of human Caco-2 cells assessed as ratio of prodrug concentration in receiver to prodrug concentration in donor at 21 uM in donor chamber after 3 hrs; assay type: ADME, cell-based; details: caco-2, 3 h
[22] = Apparent permeability from apical to basolateral side of human Caco-2 cells at 26.5 uM in donor chamber after 3 hrs; assay type: ADME, cell-based; details: read-out: permeability
[23] = Apparent permeability from basolateral to apical side of human Caco-2 cells at 26.5 uM in donor chamber after 3 hrs; assay type: ADME, cell-based; details: read-out: permeability
[24] = system: Caco-2; experiment: Permeability from basolateral to apical side of human Caco-2 cells assessed as ratio of prodrug concentration in receiver to prodrug concentration in donor at 26.5 uM in donor chamber after 3 hrs; assay type: ADME, cell-based; details: caco-2, 3 h
[25] = system: Caco-2; experiment: Permeability from basolateral to apical side of human Caco-2 cells assessed as ratio of prodrug concentration in receiver to prodrug concentration in donor at 177 uM in donor chamber after 3 hrs; assay type: ADME, cell-based; details: caco-2, 3 h
[26] = system: Caco-2; experiment: Permeability from apical to basolateral side of human Caco-2 cells assessed as ratio of prodrug concentration in receiver to prodrug concentration in donor at 26.5 uM in donor chamber after 3 hrs; assay type: ADME, cell-based; details: caco-2, 3 h
[27] = system: Caco-2; experiment: Permeability from apical to basolateral side of human Caco-2 cells assessed as ratio of prodrug concentration in receiver to prodrug concentration in donor at 177 uM in donor chamber after 3 hrs; assay type: ADME, cell-based; details: caco-2, 3 h
[28] = system: Caco-2; experiment: Permeability from basolateral to apical side of human Caco-2 cells assessed as ratio of prodrug concentration in receiver to prodrug concentration in donor at 185 uM in donor chamber after 3 hrs; assay type: ADME, cell-based; details: caco-2, 3 h
[29] = Apparent permeability from basolateral to apical side of human Caco-2 cells at 185 uM in donor chamber after 3 hrs; assay type: ADME, cell-based; details: read-out: permeability
[30] = Apparent permeability from apical to basolateral side of human Caco-2 cells at 177 uM in donor chamber after 3 hrs; assay type: ADME, cell-based; details: read-out: permeability
[31] = Apparent permeability from basolateral to apical side of human Caco-2 cells at 177 uM in donor chamber after 3 hrs; assay type: ADME, cell-based; details: read-out: permeability
[32] = system: Caco-2; experiment: Permeability from basolateral to apical side of human Caco-2 cells assessed as ratio of prodrug concentration in receiver to prodrug concentration in donor at 80 uM in donor chamber after 3 hrs; assay type: ADME, cell-based; details: caco-2, 3 h
[33] = Apparent permeability from apical to basolateral side of human Caco-2 cells at 80 uM in donor chamber after 3 hrs; assay type: ADME, cell-based; details: read-out: permeability
[34] = Apparent permeability from basolateral to apical side of human Caco-2 cells at 80 uM in donor chamber after 3 hrs; assay type: ADME, cell-based; details: read-out: permeability
[35] = system: Caco-2; experiment: Permeability from apical to basolateral side of human Caco-2 cells assessed as ratio of prodrug concentration in receiver to prodrug concentration in donor at 80 uM in donor chamber after 3 hrs; assay type: ADME, cell-based; details: caco-2, 3 h
[36] = Apparent permeability from apical to basolateral side of human Caco-2 cells at 175 uM in donor chamber after 3 hrs; assay type: ADME, cell-based; details: read-out: permeability
[37] = Apparent permeability from basolateral to apical side of human Caco-2 cells at 175 uM in donor chamber after 3 hrs; assay type: ADME, cell-based; details: read-out: permeability

Row | half-life [14] | SMILES | CC50 at 120 h [1] | IC50 [3] | IC50 [4] | CC50 at 96 h [6] | Ratio IC50 [9] | Ratio IC50 [10] | further results
1 | 46 h | CC(C)[C@H](N)C(=O)O[C@@H]1Cc2ccccc2[C@@H]1NC(=O)[C@H](Cc1ccccc1)C[C@H](O)CN1CCN(Cc2cccnc2)C[C@H]1C(=O)NC(C)(C)C.O=C(O)C(F)(F)F | > 100000 nM | 17 nM | 150 nM | > 100000 nM | >=1.7 | 7 | Activity [11]: 18.1%; Papp B→A at 3 h, 330 µM [12]: 7.37 ×10⁻⁶ cm/s; Papp A→B at 3 h, 330 µM [13]: 6.44 ×10⁻⁶ cm/s; Activity [15]: 15.6%
2 | 80 h | CC(C)[C@H](N)C(=O)NCCCCCC(=O)O[C@@H](C[C@@H](Cc1ccccc1)C(=O)N[C@H]1c2ccccc2C[C@H]1OC(=O)CCCCCNC(=O)[C@@H](N)C(C)C)CN1CCN(Cc2cccnc2)C[C@H]1C(=O)NC(C)(C)C.O=C(O)C(F)(F)F.O=C(O)C(F)(F)F | > 50000 nM | 640 nM | 2950 nM | 45000 nM | >=64 | 134 | Activity [16]: 2.1%; Papp B→A at 3 h, 150 µM [17]: 6.26 ×10⁻⁶ cm/s
3 | 60 h | CC(C)[C@@H](N)C(=O)NCCCCCC(=O)O[C@H](CN1C[C@H]2CCCC[C@H]2C[C@H]1C(=O)NC(C)(C)C)[C@H](Cc1ccccc1)NC(=O)[C@H](CC(N)=O)NC(=O)c1ccc2ccccc2n1.O=C(O)C(F)(F)F.O=C(O)C(F)(F)F.O=C(O)C(F)(F)F | 9000 nM | 175 nM | 340 nM | 5300 nM | 19 | 19 | Papp A→B at 3 h, 26.5 µM [22]: 0.58 ×10⁻⁶ cm/s; Papp B→A at 3 h, 26.5 µM [23]: 1.87 ×10⁻⁶ cm/s; Activity [24]: 4.8%; Activity [25]: 14.6%; Activity [11]: 18.1%; Activity [26]: 2.2%; Activity [27]: 14%; Activity [15]: 15.6%
4 | 72 h | CC(C)[C@H](N)C(=O)NCCCCCC(=O)O[C@@H]1Cc2ccccc2[C@@H]1NC(=O)[C@H](Cc1ccccc1)C[C@H](O)CN1CCN(Cc2cccnc2)C[C@H]1C(=O)NC(C)(C)C.O=C(O)C(F)(F)F | > 10000 nM | 36 nM | 230 nM | 47000 nM | >=3.6 | 10 | Activity [28]: 9%; Papp B→A at 3 h, 185 µM [29]: 2.92 ×10⁻⁶ cm/s
5 | 68 h | CC(C)[C@H](N)C(=O)O[C@@H](C[C@@H](Cc1ccccc1)C(=O)N[C@H]1c2ccccc2C[C@H]1O)CN1CCN(Cc2cccnc2)C[C@H]1C(=O)NC(C)(C)C.O=C(O)C(F)(F)F | > 100000 nM | 90 nM | 27 nM | 100000 nM | >=9 | 1 | Papp A→B at 3 h, 177 µM [30]: 5.13 ×10⁻⁶ cm/s; Activity [25]: 14.6%; Activity [27]: 14%; Papp B→A at 3 h, 177 µM [31]: 7.08 ×10⁻⁶ cm/s
6 | 82 h | Cc1c(OC(=O)CCCCCNC(=O)[C@@H](N)C(C)C)cccc1C(=O)N[C@@H](CSc1ccccc1)[C@@H](CN1C[C@H]2CCCC[C@H]2C[C@H]1C(=O)NC(C)(C)C)OC(=O)CCCCCNC(=O)[C@H](N)C(C)C.O=C(O)C(F)(F)F.O=C(O)C(F)(F)F | 5000 nM | 15500 nM |  | 4800 nM | 7750 |  | 

The next lines start with the compound.

Row | SMILES | half-life [14] | CC50 at 120 h [1] | IC50 [3] | IC50 [4] | CC50 at 96 h [6] | Ratio IC50 [9] | Ratio IC50 [10] | further results
7 | CC(C)(C)NC(=O)[C@@H]1C[C@@H]2CCCC[C@@H]2CN1C[C@@H](O)[C@H](Cc1ccccc1)NC(=O)[C@H](CC(N)=O)NC(=O)c1ccc2ccccc2n1 |  | > 10000 nM | 9 nM | 18 nM | > 10000 nM |  |  | Activity [2]: 2.6%; Papp A→B at 3 h, 9.4 µM [5]: 3.98 ×10⁻⁶ cm/s; Activity [7]: 10.3%; Papp B→A at 3 h, 9.4 µM [8]: 1.1 ×10⁻⁶ cm/s
8 | CC(C)[C@H](N)C(=O)O[C@H](CN1C[C@H]2CCCC[C@H]2C[C@H]1C(=O)NC(C)(C)C)[C@H](Cc1ccccc1)NC(=O)[C@H](CC(N)=O)NC(=O)c1ccc2ccccc2n1.O=C(O)C(F)(F)F | 40 h | > 10000 nM | 140 nM | 290 nM | > 10000 nM | 16 | 16 | Activity [18]: 9.6%; Papp B→A at 3 h, 21 µM [19]: 3.43 ×10⁻⁶ cm/s; Papp A→B at 3 h, 21 µM [20]: 2.32 ×10⁻⁶ cm/s; Activity [21]: 6.1%
9 | Cc1c(OC(=O)CCCCCNC(=O)[C@@H](N)C(C)C)cccc1C(=O)N[C@@H](CSc1ccccc1)[C@H](O)CN1C[C@H]2CCCC[C@H]2C[C@H]1C(=O)NC(C)(C)C.O=C(O)C(F)(F)F | 72 h | > 10000 nM | 94 nM | 230 nM | 10000 nM | 47 |  | 
10 | Cc1c(O)cccc1C(=O)N[C@@H](CSc1ccccc1)[C@H](O)CN1C[C@H]2CCCC[C@H]2C[C@H]1C(=O)NC(C)(C)C |  |  | 2 nM |  |  |  |  | Activity [32]: 6.3%; Papp A→B at 3 h, 80 µM [33]: 1.03 ×10⁻⁶ cm/s; Papp B→A at 3 h, 80 µM [34]: 2.51 ×10⁻⁶ cm/s; Activity [35]: 2.7%
11 | CC(C)(C)NC(=O)[C@@H]1CN(Cc2cccnc2)CCN1C[C@@H](O)C[C@@H](Cc1ccccc1)C(=O)N[C@H]1c2ccccc2C[C@H]1O.O=S(=O)(O)O [INDINAVIR SULFATE] |  | > 100000 nM | ≤ 10 nM | 22 nM | > 100000 nM |  |  | Papp A→B at 3 h, 175 µM [36]: 1.03 ×10⁻⁶ cm/s; Papp B→A at 3 h, 175 µM [37]: 15.5 ×10⁻⁶ cm/s
